In US20260327234A1, “NOVEL COMPOUNDS AS CYP11A1 INHIBITORS AND METHODS OF USE THEREOF” (Shenzhen Ionova Life Science Co., Ltd., priority 2023, published 2026) one finds IC50 data, which are given here for 38 compounds.

What is called IC50 is the concentration that gives 50% inhibition.

Test [1] concerns the target T1, testosterone (T) production in NCI-H295R cells (Homo sapiens, UniProt P05108).
T1 construct: testosterone measured by LC-MS/MS as downstream steroid
T1 sequence (P05108 40-521): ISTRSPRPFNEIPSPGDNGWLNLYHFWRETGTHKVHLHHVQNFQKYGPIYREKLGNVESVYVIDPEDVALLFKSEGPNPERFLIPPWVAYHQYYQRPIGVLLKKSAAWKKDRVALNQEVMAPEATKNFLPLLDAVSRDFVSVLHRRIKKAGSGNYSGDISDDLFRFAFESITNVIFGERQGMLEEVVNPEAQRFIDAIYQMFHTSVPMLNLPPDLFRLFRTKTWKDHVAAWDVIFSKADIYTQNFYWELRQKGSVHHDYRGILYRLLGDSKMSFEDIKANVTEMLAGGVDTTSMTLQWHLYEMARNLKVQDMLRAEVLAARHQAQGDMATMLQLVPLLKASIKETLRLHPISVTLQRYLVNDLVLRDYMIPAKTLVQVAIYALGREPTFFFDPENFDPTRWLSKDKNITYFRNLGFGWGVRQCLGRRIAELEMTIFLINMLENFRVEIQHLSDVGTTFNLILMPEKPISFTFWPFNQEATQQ
In words: H295R Steroid Biosynthesis Inhibition Assay - inhibition of testosterone (T) production in NCI-H295R cells. To be noted: 48 h, LC-MS/MS, read-out: Inh. of T IC50. In kind it is cell-based. The procedure:
(§1) Steroid Biosynthesis Inhibition by test compounds in NCI-H295R cells (ATCC) was studied by measuring the cellular production of pregnenolone (P) catalyzed by CYP11A1 and the downstream steroid, testosterone (T). Cells were cultured in Dulbecco's modified eagle's medium F12 (DMEM/F12) with phenol red (Gibco, Cat. No. 11330032) supplemented with 2% UltroserG (Pall, Cat. No. 15950-017, USA), 1% ITS-Premix and 1% penicillin and streptomycin (Hyclone, Cat. No. SV30010, USA). Prior to the assay, cells were thawed and passed 4 times. The maximal passage number used for the assay was 10. For this assay, DMEM/F12 without phenol red supplemented with 10% charcoal-stripped fetal bovine serum (VivaCell, Cat. No. C3830-0500, USA) were used. In a 96-well plate, 60,000 cells/well were plated (90 μL/well) and incubated for 24 h. Test compounds, diluted in a serial dilution ranging from 1000 nM to 0.15 nM in the assay medium, were added to the plate. After 48 h of incubation, solution from each well were collected and transferred to individual 1.5 mL centrifuge tubes, and then 5 ng/mL deuterated testosterone (D3-testosterone) and 50 ng/mL deuterated pregnenolone (D4-pregnenolone) in 200 μL acetonitrile were added. After vigorously mixing for 5 min, the mixture was centrifuged at 12,700 rpm for 15 min. An aliquot of 250 μL supernatant was collected and dried under N2 stream. After addition of 150 μL Methanol:water (1:1, v/v) to the dried product, 50 μL sample of this solution was injected into the LC-MS/MS system for analysis.
(§2) The half-maximal inhibitory concentration (IC50) for steroid biosynthesis inhibition was determined by curve-fitting with the 4-variable inhibitory dose response equation using GraphPad Prism software.
(§3) Testosterone and pregnenolone were analyzed using Shimadzu LC30AD HPLC system (Shimadzu, Kyoto, Japan) coupled with AB SCIEX Qtrap 5500 triple quadrupole mass spectrometer (AB Sciex, Framingham, MA, USA) via ESI interface in the positive ionization mode. An ACQUITY UPLC BEH Shield RP18 column (1.7 μm, 2.1×50 mm, Milford, MA, USA) maintained at 40° C. was used to separate analytes and IS form the sample matrix.
(§4) The mobile phase was a mixture of 10 mM ammonium acetate in water containing 0.2% formic acid (A) and methanol containing 0.2% formic acid (B) at a flow rate of 0.6 mL/min. The gradient program was set as follows: from 0 min to 0.5 min, 60% B; from 0.5 min to 3.5 min, 90% B; from 3.5 min to 4.5 min, 90% B; from 4.51 min to 5.0 min, 60% B. The injection volume was […].
(§5) The MS/MS parameters were set as follows: ion spray voltage, 5500 V; curtain gas, 35 psi; Gas 1, 55 psi; Gas 2: 55 psi; temperature, […]. The optimized multiple reaction monitoring (MRM) fragmentation transitions and MS parameters of each analyte are summarized in Table 1.

In test [2] the target is T2, CYP11A1 (Homo sapiens, UniProt P05108).
T2 construct: measuring the cellular production of pregnenolone (P) catalyzed by CYP11A1; host or cells: NCI-H295R
T2 sequence (P05108 40-521): T1 sequence (P05108 40-521)
Put plainly: H295R Steroid Biosynthesis Inhibition Assay - inhibition of pregnenolone (P) production catalyzed by CYP11A1 in NCI-H295R cells. In kind it is cell-based. To be noted: 48 h, LC-MS/MS, read-out: Inh. of P IC50. The procedure:
as §1, §2, §3, §4, §5

Each structure is given as a SMILES string.

Turning to `O=c1cc(CN2Cc3ccccc3C2)oc2cc([C@@H]3CCC[C@@H](O)CC3)oc12` (racemic) [Compound 42], the IC50 in test [1] and in test [2] was not above 40 nM in each case.

Turning to `CS(=O)(=O)N1C[C@@H]2[C@@H](COc3coc(CN4Cc5ccccc5C4)cc3=O)[C@@H]2C1` [Compound 1, 2-(isoindolin-2-ylmethyl)-5-(((1R,5S,6r)-3-(methylsulfonyl)-3-azabicyclo[3.1.0]hexan-6-yl)methoxy)-4H-pyran-4-one], the IC50 in test [1] was 41 to 100 nM; in test [2] it was not above 40 nM.

As for `O=c1cc(CN2Cc3ccccc3C2)occ1OC[C@H]1CC[C@H](O)CC1` [Compound 2], the IC50 in test [1] and in test [2] was not above 40 nM each time.

Turning to `CS(=O)(=O)N1CCC(COc2coc(CN3CCn4cccc4C3)cc2=O)CC1` [Compound 3], the IC50 is 41 to 100 nM in test [1] and not above 40 nM in test [2].

Turning to `CS(=O)(=O)N1CCC(COc2coc(CN3CCn4c(Cl)ccc4C3)cc2=O)CC1` [Compound 4], the results for the IC50 in test [1] and in test [2] were 41 to 100 nM and not above 40 nM, respectively.

Regarding `CS(=O)(=O)N1CCC(COc2coc(CN3CCc4sccc4C3)cc2=O)CC1` [Compound 5], the figures for the concentration for half-maximal inhibition (IC50) in test [1] and in test [2] were not below 101 nM and not below 100 nM, respectively.

Take `Cc1oc(CN2Cc3ccccc3C2)cc(=O)c1OCC1CCN(S(C)(=O)=O)CC1` [Compound 6]: the half-inhibitory concentration (IC50) in test [1] is 41 to 100 nM; in test [2], not above 40 nM.

In the case of `CS(=O)(=O)N1CCC(COc2ccc(CN3Cc4ccccc4C3)c3ccccc23)CC1` [Compound 7], the IC50 in test [1] and in test [2] was not above 40 nM throughout.

With `CS(=O)(=O)N1CCC(COc2ccc(CN3CCc4ccccc4C3)c3cccnc23)CC1` [Compound 8], the IC50 in test [1] and in test [2] was not above 40 nM throughout.

For the compound `CC(c1ccc(OCC2CCN(S(C)(=O)=O)CC2)c2ncccc12)N1Cc2ccccc2C1` (stereo not shown) [Compound 9], the 50% inhibitory concentration (IC50) in test [1] and in test [2] was not above 40 nM throughout.

On to `CS(=O)(=O)N1CCC(COc2ccc(C3(N4Cc5ccccc5C4)CC3)c3cccnc23)CC1` [Compound 10], for which the 50% inhibitory concentration (IC50) in test [1] was not below 101 nM; in test [2], 40 to 100 nM.

Consider `CC(Oc1ccc(CN2Cc3ccccc3C2)c2cccnc12)C1CCN(S(C)(=O)=O)CC1` (stereo not shown) [Compound 11], for which the IC50 in test [1] is 41 to 100 nM; in test [2], not above 40 nM.

For the compound `CC(c1ncc(OCC2CCN(S(C)(=O)=O)CC2)c2ncccc12)N1Cc2ccccc2C1` (stereo not shown) [Compound 12], the IC50 in test [1] and in test [2] was not above 40 nM each time.

As for `CS(=O)(=O)N1C[C@@H]2[C@H](C1)[C@H]2c1cc2oc(CN3Cc4ccccc4C3)cc(=O)c2o1` [Compound 13, 5-(isoindolin-2-ylmethyl)-2-((1R,5S,6r)-3-(methylsulfonyl)-3-azabicyclo[3.1.0]hexan-6-yl)-7H-furo[3,2-b]pyran-7-one], the 50% inhibitory concentration (IC50) in test [1] and in test [2] was not above 40 nM each time.

Turning to `CS(=O)(=O)N1CCC(c2cc3oc(CN4Cc5ccccc5C4)cc(=O)c3o2)CC1` [Compound 14], the IC50 in test [1] and in test [2] was not above 40 nM throughout.

In the case of `COC(=O)N1CCC(c2cc3oc(CN4Cc5ccccc5C4)cc(=O)c3o2)CC1` [Compound 15], the IC50 in test [1] and in test [2] was not above 40 nM in each case.

Regarding `CS(=O)(=O)N1CCCC(c2cc3oc(CN4Cc5ccccc5C4)cc(=O)c3o2)C1` (stereo not shown) [Compound 16], the concentration for half-maximal inhibition (IC50) in test [1] was not below 101 nM; in test [2] it was 40 to 100 nM.

As for `CS(=O)(=O)N1CCC(c2cc3oc(CN4Cc5ccc(F)cc5C4)cc(=O)c3o2)CC1` [Compound 17], the IC50 in test [1] and in test [2] was not above 40 nM in each case.

Regarding `Cc1ccc2c(c1)CN(Cc1cc(=O)c3oc(C4CCN(S(C)(=O)=O)CC4)cc3o1)C2` [Compound 18], the IC50 in test [1] and in test [2] was not above 40 nM each time.

As to `COc1ccc2c(c1)CN(Cc1cc(=O)c3oc(C4CCN(S(C)(=O)=O)CC4)cc3o1)C2` [Compound 19], the IC50 in test [1] and in test [2] was not above 40 nM each time.

In the case of `CS(=O)(=O)N1CCC(c2cc3oc(CN4Cc5ccc(C(F)(F)F)cc5C4)cc(=O)c3o2)CC1` [Compound 20], the concentration for half-maximal inhibition (IC50) in test [1] and in test [2] was not above 40 nM each time.

As to `CS(=O)(=O)N1CCC(c2cc3oc(CN4CCc5ccccc5C4)cc(=O)c3o2)CC1` [Compound 21], the 50% inhibitory concentration (IC50) in test [1] was not below 101 nM; in test [2] it was not below 100 nM.

Turning to `CS(=O)(=O)N1CCC2(CC1)CC(c1cc3oc(CN4Cc5ccccc5C4)cc(=O)c3o1)C2` [Compound 22], the IC50 in test [1] and in test [2] was not above 40 nM throughout.

With `CS(=O)(=O)N1CC2(CC(c3cc4oc(CN5Cc6ccccc6C5)cc(=O)c4o3)C2)C1` [Compound 23], the IC50 in test [1] and in test [2] was not above 40 nM in each case.

Take `O=c1cc(CN2Cc3ccccc3C2)oc2cc(C3CC4(CC(O)C4)C3)oc12` (stereo not shown) [Compound 24]: the 50% inhibitory concentration (IC50) in test [1] and in test [2] was not above 40 nM each time.

With `O=c1cc(CN2Cc3ccccc3C2)oc2cc(C3CC4(COC4)C3)oc12` [Compound 25], the 50% inhibitory concentration (IC50) in test [1] and in test [2] was not above 40 nM each time.

As to `O=c1cc(CN2Cc3ccccc3C2)oc2cc(C3CCC(F)(F)CC3)oc12` [Compound 26], the figures for the IC50 in test [1] and in test [2] were not below 101 nM and 40 to 100 nM, respectively.

For the compound `C[C@]1(O)CC[C@H](c2cc3oc(CN4Cc5ccccc5C4)cc(=O)c3o2)CC1` [Compound 27], the IC50 in test [1] and in test [2] was not above 40 nM throughout.

For the compound `C[C@]1(O)CC[C@@H](c2cc3oc(CN4Cc5ccccc5C4)cc(=O)c3o2)CC1` [Compound 28], the IC50 was not below 101 nM in test [1] and not above 40 nM in test [2].

For the compound `O=c1cc(CN2Cc3ccccc3C2)oc2cc([C@H]3CC[C@H](O)CC3)oc12` [Compound 29], the half-inhibitory concentration (IC50) in test [1] and in test [2] was not above 40 nM each time.

In the case of `O=c1cc(CN2Cc3ccccc3C2)oc2cc([C@@H]3CC[C@@H](O)[C@@H](F)C3)oc12` [Compound 30], the IC50 in test [1] and in test [2] was not above 40 nM each time.

Turning to `CC(c1cc(=O)c2oc([C@H]3CC[C@H](O)CC3)cc2o1)N1Cc2ccccc2C1` (stereo partly shown) [Compound 31], the 50% inhibitory concentration (IC50) in test [1] and in test [2] was not above 40 nM throughout.

As for `CC(C)(O)[C@H]1CC[C@H](c2cc3oc(CN4Cc5ccccc5C4)cc(=O)c3o2)CC1` [Compound 32], the IC50 in test [1] was not above 40 nM; in test [2], 40 to 100 nM.

Regarding `O=c1cc(CN2Cc3ccccc3C2)oc2cc([C@H]3CC4CCC(C3)[C@H]4O)oc12` [Compound 33], the IC50 lay within 41 to 100 nM in test [1] and 40 to 100 nM in test [2].

Turning to `O=c1cc(CN2Cc3ccccc3C2)oc2cc(C34CCC(O)(CC3)CC4)oc12` [Compound 34], the IC50 in test [1] and in test [2] was not above 40 nM each time.

Take `O=c1cc(CN2Cc3ccccc3C2)oc2cc(C3CCC(O)C3)oc12` (stereo not shown) [Compound 35]: the results for the concentration for half-maximal inhibition (IC50) in test [1] and in test [2] were 41 to 100 nM and not above 40 nM, respectively.

With `O=c1cc(CN2Cc3ccccc3C2)oc2cc([C@@H]3CCC[C@@H](O)C3)oc12` [Compound 36], the values for the IC50 in test [1] and in test [2] were not below 101 nM and 40 to 100 nM, respectively.

`O=c1cc(CN2Cc3ccccc3C2)oc2cc([C@H]3CC[C@@](O)(C(F)(F)F)CC3)oc12` [Compound 37]: the concentration for half-maximal inhibition (IC50) in test [1] was not above 40 nM; in test [2] it was 40 to 100 nM.
